# Source: US20260234165A1, “MACROCYCLIC COMPOUNDS, PREPARATION METHOD THEREFOR, AND USE THEREOF” (GENFLEET THERAPEUTICS (SHANGHAI) INC., priority 2004, published 2026)
# Like-named read-outs stand apart in the source and are kept apart here.
# What was measured:
# Format in all cases: cell-based, human
# [1] = tested on: AsPC-1 cells (KRAS G12D mutation); assay: 3D cell proliferation assay (CellTiter Glo-3D), AsPC-1; settings: medium with 2% FBS, read-out: AsPC-1 AP IC50
# Summary of the method: (§1)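 NCI-H441 ([…] lung) and AsPC-1 (KRAS G12D pancreatic) cells, 800 per well, were seeded in RPMI-1640 with 2% FBS and dosed next day with 3.16-fold compound dilutions (0.1% DMSO). After 5 days at 37 °C, CellTiter-Glo 3D luminescence gave inhibition versus DMSO and blank; IC50 from four-parameter fit.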
# [2] = tested on: p-ERK in AsPC-1 cells (KRAS G12D mutation); assay: Cell p-ERK assay (HTRF) in AsPC-1 cells; settings: AsPC-1 cells, 3 h compound incubation, HTRF p-ERK T202/Y204, read-out: AsPC-1 p-ERK IC50
# Summary of the method: (§2)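 AsPC-1 (10000/well) or NCI-H441 (20000/well) cells were seeded in RPMI-1640 with 10% FBS, grown overnight, then exposed to 3.16-fold compound dilutions (0.1% DMSO) for 3 h at 37 °C. Lysates were read for phospho-ERK T202/Y204 by HTRF; IC50 came from four-parameter fits of inhibition versus DMSO and blank wells.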
# [3] = tested on: p-ERK in NCI-H441 cells (KRAS G12V mutation); assay: Cell p-ERK assay (HTRF) in NCI-H441 cells; settings: NCI-H441 cells, 3 h compound incubation, HTRF p-ERK T202/Y204, read-out: H441 p-ERK IC50
# Summary of the method: as §2
# NCI-H441 cells = assay: 3D cell proliferation assay (CellTiter Glo-3D), NCI-H441; settings: medium with 2% FBS, read-out: H441 AP IC50
# Summary of the method: as §1
# [4] = 3D cell proliferation (CellTiter Glo-3D)
# [5] = Homo sapiens, ASPC1, 3D cell proliferation (CellTiter Glo-3D)
# [6] = Homo sapiens, NCI-H441, 3D cell proliferation (CellTiter Glo-3D)
SMILES,"IC50 [1, 4] [nM]",IC50 [2] [nM],IC50 [3] [nM],IC50 (NCI-H441 cells; [4]) [nM],"IC50 [1, 5] [nM]","IC50 ([2]; Homo sapiens, ASPC1, 3 h) [nM]","IC50 ([3]; Homo sapiens, NCI-H441, 3 h) [nM]",IC50 (NCI-H441 cells; [6]) [nM]
"CO[C@@H](C)c1ncc(OCCN2CCOC3(CC3)C2)cc1-c1c2c3cc(ccc3n1CC(F)(F)F)-c1csc(n1)C[C@H](NC(=O)[C@H]1[C@H](C)[C@@H]1C)C(=O)N1CCC[C@H](N1)C(=O)OCC1(CC1)C2 (atropisomer, axis not shown; (Ra)) [Compound Z380, (1r,2R,3S)—N-((3′S,4′S,Z)—(Ra)-2′-(5-(2-(4-oxa-7-azaspiro[2,5]octan-7-yl)ethoxy)-2-((S)-1-methoxyethyl)pyridin-3-yl)-5′,7′-dioxo-1′-(2,2,2-trifluoroethyl)spiro[cyclopropane-1,10′-8-oxa-2(4,2)-thiazola-1(5,3)-indola-6(1,3)-pyridazinacycloundecaphan]-4-yl)-2,3-dimethylcyclopropane-1-carboxamide]",6.28,9.45,3.67,4.75,–,–,–,–
"CCn1c(-c2cc(C#CCN3CC(F)C3)cnc2[C@H](C)OC)c2c3cc(ccc31)-c1csc(n1)C[C@H](NC(=O)[C@H]1[C@H](C)[C@@H]1C)C(=O)N1CCC[C@H](N1)C(=O)OCC(C)(C)C2 (atropisomer, axis not shown; (Ra)) [Compound Z383-1, (1r,2R,3S)—N-((6^3S,4S,Z)—(Ra)-1^2-(5-(3-(3-fluoroazetidin-1-yl)prop-1-yn-1-yl)-2-((S)-1-methoxyethyl)pyridin-3-yl)-1^1-ethyl-10,10-dimethyl-5,7-dioxo-6^1,6^2,6^3,6^4,6^5,6^6-hexahydro-1^1H-8-oxa-2(4,2)-thiazola-1(5,3)-indola-6(1,3)-pyridazinacycloundecaphane-4-yl)-2,3-dimethylcyclopropane-1-carboxamide]",5.52,7.39,2.79,6.04,–,–,–,–
"CCn1c(-c2cc(N3CCN(C)CC3)cnc2[C@H](C)OC)c2c3cc(ccc31)-c1csc(n1)C[C@H](Nc1nnc3ccc(C)cn13)C(=O)N1CCC[C@H](N1)C(=O)OCC(C)(C)C2 (atropisomer, axis not shown; (Ra)) [Compound Z434, (6^3S,4S,Z)-1^1-ethyl-(Ra)-1^2-(2-((S)-1-methoxyethyl)-5-(4-methylpiperazin-1-yl)pyridin-3-yl)-10,10-dimethyl-4-((6-methyl-[1,2,4]triazolo[4,3-a]pyridin-3-yl)amino)-6^1,6^2,6^3,6^4,6^5,6^6-hexahydro-1^1H-8-oxa-2(4,2)-thiazola-1(5,3)-indola-6(1,3)-pyridazinacycloundecaphane-5,7-dione]",–,–,–,–,104,69.4,17.5,18.1
"CCn1c(-c2cc(N3CCN(C)CC3)cnc2[C@H](C)OC)c2c3cc(ccc31)-c1csc(n1)C[C@H](Nc1nnc3ccccn13)C(=O)N1CCC[C@H](N1)C(=O)OCC(C)(C)C2 (atropisomer, axis not shown; (Ra)) [Compound Z460, (6^3S,4S,Z)-4-([1,2,4]triazolo[4,3-a]pyridin-3-ylamino)-1^1-ethyl-(Ra)-1^2-(2-((S)-1-methoxyethyl)-5-(4-methylpiperazin-1-yl)pyridin-3-yl)-10-O-dimethyl-6^1,6^2,6^3,6^4,6^5,6^6-hexahydro-1^1H-8-oxa-2(4,2)-thiazola-1(5,3)-indola-6(1,3)-pyridazinacycloundecaphane-5,7-dione]",–,–,–,–,73.4,26.2,6.3,14.3
"CO[C@@H](C)c1ncc(OCCN2CCOC3(CC3)C2)cc1-c1c2c3cc(ccc3n1C(C)C)-c1csc(n1)C[C@H](NC(=O)[C@H]1[C@H](C)[C@@H]1C)C(=O)N1CCC[C@H](N1)C(=O)OCC1(CC1)C2 (atropisomer, axis not shown; (Ra)) [Compound Z462, (1r,2R,3S)—N-((3′S,4′S,Z)-2′-(5-(2-(4-oxa-7-azaspiro[2,5]octan-7-yl)ethoxy)-(Ra)-2-((S)-1-methoxyethyl)pyridin-3-yl)-1′-isopropyl 5′,7′-dioxospiro[cyclopropane-1,10′-8-oxa-2(4,2)-thiazola-1(5,3)-indola-6(1,3)-pyridazinacycloundecaphan]-4′-yl)-2,3-dimethylcyclopropane-1-carboxamide]",–,–,–,–,2.72,1.6,1.12,1.37
"CCn1c(-c2cc(OCC3(N4CCCOCC4)CC3)cnc2[C@H](C)OC)c2c3cc(ccc31)-c1csc(n1)C[C@H](NC(=O)[C@H]1[C@H](C)[C@@H]1C)C(=O)N1CCC[C@H](N1)C(=O)OCC1(CC1)C2 (atropisomer, axis not shown; (Ra)) [Compound Z464, (1r,2R,3,S)—N-((3′S,4′S,Z)—(Ra)-2′-(5-((1-(1,4-oxazepan-4-yl)cyclopropyl)methoxy)-2-((S)-1-methoxyethyl)pyridin-3-yl)-1′-ethyl-5′,7′-dioxospiro[cyclopropane-1,10′-8-oxa-2(4,2)-thiazola-1(5,3)-indola-6(1,3)-pyridazinacycloundecaphan]-4′-yl)-2,3-dimethylcyclopropane-1-carboxamide]",15,3.03,1.9,6.32,–,–,–,–
"CCn1c(-c2cc(OCCN3CCS(=O)(=O)CC3)cnc2[C@H](C)OC)c2c3cc(ccc31)-c1csc(n1)C[C@H](NC(=O)[C@H]1[C@H](C)[C@@H]1C)C(=O)N1CCC[C@H](N1)C(=O)OCC(C)(C)C2 (atropisomer, axis not shown; (Ra)) [Compound Z469, (0r,2R,3S)—N-((6^3S,4S,Z)—(Ra)-1^2-(5-(2-(1,1-dioxidothiomorpholino)ethoxy)-2-((S)-1-methoxyethyl)pyridin-3-yl)-1^1-ethyl-10,10-dimethyl-5,7-dioxo-6^1,6^2,6^3,6^4,6^5,6^6-hexahydro-1^1H-8-oxa-2(4,2)-thiazola-1(5,3)-indola-6(1,3)-pyridazinacycloundecaphane-4-yl)-2,3-dimethylcyclopropane-1-carboxamide]",–,0.11,0.35,–,0.24,–,–,0.09
"CCn1c(-c2cc(CC3(N4CCS(=O)(=O)CC4)CC3)cnc2[C@H](C)OC)c2c3cc(ccc31)-c1csc(n1)C[C@H](NC(=O)[C@H]1[C@H](C)[C@@H]1C)C(=O)N1CCC[C@H](N1)C(=O)OCC(C)(C)C2 (atropisomer, axis not shown; (Ra)) [Compound Z484, (1r,2R,3S)—N-((6^3S,4S,Z)—(Ra)-1^2-(5-((1-(1,1-dioxidothiomorpholino)cyclopropyl)methyl)-2-((S)-1-methoxyethyl)pyridin-3-yl)-1^1-ethyl-10,10-dimethyl-5,7-dioxo-6^1,6^2,6^3,6^4,6^5,6^6-hexahydro-1^1H-8-oxa-2(4,2)-thiazola-1(5,3)-indola-6(1.3)-pyridazinacycloundecaphane-4-yl)-2,3-dimethylcyclopropane-1-carboxamide]",–,–,–,–,3.19,1.3,0.67,0.59
"CCn1c(-c2cc(CCN3CCS(=O)(=O)CC3)cnc2[C@H](C)OC)c2c3cc(ccc31)-c1csc(n1)C[C@H](NC(=O)[C@H]1[C@H](C)[C@@H]1C)C(=O)N1CCC[C@H](N1)C(=O)OCC(C)(C)C2 (atropisomer, axis not shown; (Ra)) [Compound Z485, (1r,2R,3S)—N-((6^3S,4S,Z)—(Ra)-1^2-(5-(2-(1,1-dioxidothiomorpholino)ethyl)-2-((S)-1-methoxyethyl)pyridin-3-yl)-11-ethyl-10,10-dimethyl-5,7-dioxo-6^1,6^2,6^3,6^4,6^5,6^6-hexahydro-1^1H-8-oxa-2(4,2)-thiazola-1(5,3)-indola-6(1,3)-pyridazinacycloundecaphane-4-yl)-2,3-dimethylcyclopropane-1-carboxamide]",–,–,–,–,0.96,0.73,0.35,0.42
"CCn1c(-c2cc(OCC3(CN4CCCOCC4)CC3)cnc2[C@H](C)OC)c2c3cc(ccc31)-c1csc(n1)C[C@H](NC(=O)[C@H]1[C@H](C)[C@@H]1C)C(=O)N1CCC[C@H](N1)C(=O)OCC1(CC1)C2 (atropisomer, axis not shown; (Ra)) [Compound Z498]",–,–,–,–,8.99,10.9,4.06,5.58
"[2H]C([2H])([2H])C1(C([2H])([2H])[2H])COC(=O)[C@@H]2CCCN(N2)C(=O)[C@@H](NC(=O)[C@H]2[C@H](C)[C@@H]2C)Cc2nc(cs2)-c2ccc3c(c2)c(c(-c2cc(OCCN4CCOC5(CC5)C4)cnc2[C@H](C)OC)n3CC)C1 (atropisomer, axis not shown; (Ra)) [Compound Z501, (1r,2R,3S)—N-((6^3S,4S,Z)-1^1-ethyl-(Ra)-1^2-(5-(2-(4-oxa-7-azaspiro[2.5]octan-7-yl)ethoxy)-2-((S)-1-methoxyethyl)pyridin-3-yl)-10,10-bis(methyl-d3)-5,7-dioxo-6^1,6^2,6^3,6^4,6^5,6^6-hexahydro-11H-8-oxo-2(4,2)-thiazola-1(5,3)-indola-6(1,3)-pyridazinacycloundecaphane-4-yl)-2,3-dimethylcyclopropane-1-carboxamide]",–,–,–,–,0.52,0.35,0.22,0.22
